Results on 3 compounds are retold here after US20140275237A1, “BERAPROST ISOMER AS AN AGENT FOR THE TREATMENT OF VIRAL INFECTION” (priority 2013, published 2014).

Assay [1] has as its system Influenza A/Duck/MN/1525/81 (H5N1). Details: species or system mice. The conditions noted are these: mouse, in vivo.
For assay [2] the test system is unchanged. Details: species or system mice. The settings on record: mouse, in vivo. The source holds these as a separate data set.
The subject of assay [3] is human PBMCs activated with Poly r(I:C). Description: cells. The settings on record: for EC50: read-out: EC50 for reduction of cytokine release (TNFalpha production) from human PBMCs. The class given is cell-based.
For assay [4], the system named is Influenza A/Duck/MN/1525/81 (H5N1). Details: species or system mice. The conditions noted are these: mouse, in vivo. This is another data set of the same source.
For assay [5] the test system is unchanged. Details: species or system mice. The settings on record: mouse, in vivo. This is another data set of the same source.
For assay [6] the test system is unchanged. Details: species or system mice. The conditions noted are these: mouse, in vivo. The source holds these as a separate data set.

Read-outs that look alike come from different tables or passages of the source.

On to `CC#CC[C@H](C)[C@H](O)/C=C/[C@@H]1[C@H]2c3cccc(CCCC(=O)[O-])c3O[C@H]2C[C@H]1O.[Na+]` (single isomer, unassigned; isomer a) [Isomer A], for which, in assay [1], the “Lung cytokine concentration, CCL2 Average” value was 953 pg/mL; the “Lung cytokine concentration, IFNg Average” value came out at 1046 pg/mL; the “Lung cytokine concentration, IL-6 Average” value turned out to be 521 pg/mL; the “Lung cytokine concentration, IL-10 Average” value stood at 223 pg/mL. Also, the “Lung cytokine concentration, IL-12 Ave” value in assay [1] amounted to 3800 pg/mL. Moreover, in assay [2], the “MDD (mean day of death)” value turned out to be 13 and the Survival is given as 4/10. Also, the EC50 – broadly, the concentration needed to bring the measured effect to its halfway point – in assay [3] came out at 4 nM. Further, in assay [4], the “Mean number of cells (lung)” value was 1.15. Besides, in assay [5], the “Lung score, Mean” value worked out at 2.00 and the “Lung weight, Mean” value is recorded as 0.22 grams. The “Average % loss (animal weight loss as percent of initial weight)” value in assay [6] is given as 76%.

With `CC#CCC(C)C(O)C=CC1C(O)CC2Oc3c(CCCC(=O)O)cccc3C21` (single isomer, unassigned; isomer d) [Isomer D], in assay [1], the “Lung cytokine concentration, CCL2 Average” value was determined as 2347 pg/mL; the “Lung cytokine concentration, IFNg Average” value was 2074 pg/mL; the “Lung cytokine concentration, IL-6 Average” value is recorded as 1291 pg/mL; the “Lung cytokine concentration, IL-10 Average” value is 758 pg/mL. Also, the “Lung cytokine concentration, IL-12 Ave” value in assay [1] is 2603 pg/mL. Also, in assay [2], the “MDD (mean day of death)” value was 7 and the Survival is on record as 0/10. The “EC50 for reduction of cytokine release (TNFalpha production) from human PBMCs” value in assay [3] is recorded as “No”. Also, in assay [5], the “Lung score, Mean” value turned out to be 3.50 and the “Lung weight, Mean” value was 0.37 grams. For the same compound, the “Average % loss (animal weight loss as percent of initial weight)” value in assay [6] turned out to be 68%.

On to `CC#CCC(C)C(O)C=CC1C(O)CC2Oc3c(CCCC(=O)[O-])cccc3C21.[Na+]` (centres unmarked) [Beraprost, 2,3,3a,8b-tetrahydro-2-hydroxyl-1-(3-hydroxyl-4-methyl-1-octen-6-ynyl)-1H-cyclopenta[b]benzofuran-5-butanoic acid, sodium salt], for which, in assay [1], the “Lung cytokine concentration, CCL2 Average” value was found to be 1308 pg/mL; the “Lung cytokine concentration, IFNg Average” value came out at 1601 pg/mL; the “Lung cytokine concentration, IL-6 Average” value was 604 pg/mL; the “Lung cytokine concentration, IL-10 Average” value was determined as 621 pg/mL. The “Lung cytokine concentration, IL-12 Ave” value in assay [1] came out at 3517 pg/mL. In assay [2], the “MDD (mean day of death)” value is listed as 11.5 and the Survival was 3/10. Besides, the EC50 in assay [3] (Homo sapiens, PBMC, 18 h) was 11 nM. The “Mean number of cells (lung)” value in assay [4] turned out to be 2.63. In assay [5], the “Lung score, Mean” value stood at 2.0 and the “Lung weight, Mean” value is reported as 0.24 grams. In addition, the “Average % loss (animal weight loss as percent of initial weight)” value in assay [6] came out at 76%.
